Measured values from publication PMC8804135 (Neurotherapeutics, 2021).

Assays:
[1] = In vitro stability in rat serum; format: in vitro ADME; details: 5% rat serum, 20 mM phosphate pH 7.4, 37 °C, 10 µM, HPLC A280, n = 2–3
Procedure: At various time points (0, 30, 90, 270, and 1410 min), 180 µl of samples were quenched with 10 µl 10% TFA and 20 µl 100% ACN. Samples were centrifuged and kept on ice. The amount of full-length peptides in the serum was analyzed using a C12 column (C12 RP 250 × 4.60 mm column, Phenomenex) on a JASCO HPLC system and applying a gradient of 10–90% ACN in 0.1% TFA for 45 min. Peptides were detected at 280 nm. A280 areas in chromatograms of the corresponding GAL-(1–15) and M89b full-length peptide peaks were used to determine the amount of peptide left after incubation with 5% rat serum at the different time points. Peptide peaks were determined using JASCO-Borwin Chromatography software (v1.50).

[2] = In vitro stability in cerebrospinal fluid; format: in vitro ADME; details: cerebrospinal or other body fluid; pooled male Wistar Hannover rat cerebrospinal fluid, 37 °C; 4 µl 0.50 mM peptide + 10 µl CSF; after 4 h; HPLC A280; n = 2–3; read-out: Peptide retrieved in CSF
Procedure: Pooled male Wistar Hannover rat cerebrospinal fluid was purchased from BioIVT (West Sussex, UK). Stability of peptides was analyzed by incubation of 4 µl 0.50 mM GAL-(1–15) with 10 µl cerebrospinal fluid or 6 µl 0.33 mM M89b with 10 µl cerebrospinal fluid at 37 °C [43]. At various time points (0, 30, 60, 240, and 480 min), the reactions were quenched with 2 µl 50% TFA and 20 µl 100% ACN. Water was added to reach a final volume of 220 µl. Samples were centrifuged and kept on ice. Full-length peptides were quantified by using a C12 column (C12 RP 250 × 4.60 mm column, Phenomenex) on a JASCO HPLC system and applying a gradient of 20–90% ACN in 0.1% TFA for 30 min. Peptides were detected at 280 nm. A280 areas in chromatograms of the corresponding GAL-(1–15) and M89b full-length peptide peaks were used to determine the amount of peptide left after incubation with cerebrospinal fluid at the different time points. Peptide peaks were determined using JASCO-Borwin Chromatography software (v1.50).

[3] = In vitro stability in brain plasma; format: in vitro ADME, rat; details: 1% Sprague dawley rat brain plasma, 200 mM phosphate pH 7.4, 37 °C, 10 µM; after 1 h; HPLC A280; n=3
Procedure: The method to study the stability of peptides in brain plasma is described in the Supplementary material. […]
receptor-2-selective agonist reduces acute food intake
Anneke Kuipers1, Márta Balasko2, Erika Pétervári2, Andreas Koller3,4, Susanne M.
Brunner3,4, Gert N. Moll1,5, Barbara Kofler 3*
In vitro stability in brain plasma
Sprague dawley rat brain lyophilized powder was purchased from MyBioSource (San Diego, USA). One gram brain powder was reconstituted in 10 ml PBS, 0.5 ml 2 M Tris (pH=8), 100 µl Triton X -100 and 10 mg SDS. The solution was centrifuged and the supernatant was collected, aliquoted and stored at -20 °C until usage. To assess the stability, 10 µM GAL-(1-15) and 10 µM M89b were incubated in 1% brain plasma buffered with 200 mM phosphate buffer (pH 7.4) at 37°C for up to 6 hours. At various time points […]
20 µl 100% ACN. Samples were centrifuged and kept on ice. Full-length peptides were quantified by using a C12 column (C12 RP 250 x 4.60 mm column, Phenomenex) on a JASCO HPLC system and applying a gradient of 20 -90% ACN in 0.1% TFA for 30 minutes.
Peptides were detected at 280 nm. A280 areas in chromatograms of the corresponding GAL-(1-15) and M89b full-length peptide peaks were used to determine the amount of peptide left after incubation with cerebrospinal fluid at the different time points. Peptide peaks were determined using JASCO-Borwin Chromatography software (v1.50).

[4] = cited from earlier work
Description: The use of natural galanin in clinical applications faces two serious limitations: lack of receptor specificity and in vivo susceptibility to rapid peptidase-mediated breakdown. […] Recently, a selective GAL2R agonist based on the sequence of spexin, a newly discovered natural peptide with affinity for GAL2R and ...

GAL2R = biological target: T1, GAL2R (Homo sapiens, UniProt O43603); design: expressed in transfected cells; host or cells: HEK293 Gqi cells, transient; plasmids from Young Seong (Korea University); details: cited from earlier work
T1 sequence (O43603 1-387): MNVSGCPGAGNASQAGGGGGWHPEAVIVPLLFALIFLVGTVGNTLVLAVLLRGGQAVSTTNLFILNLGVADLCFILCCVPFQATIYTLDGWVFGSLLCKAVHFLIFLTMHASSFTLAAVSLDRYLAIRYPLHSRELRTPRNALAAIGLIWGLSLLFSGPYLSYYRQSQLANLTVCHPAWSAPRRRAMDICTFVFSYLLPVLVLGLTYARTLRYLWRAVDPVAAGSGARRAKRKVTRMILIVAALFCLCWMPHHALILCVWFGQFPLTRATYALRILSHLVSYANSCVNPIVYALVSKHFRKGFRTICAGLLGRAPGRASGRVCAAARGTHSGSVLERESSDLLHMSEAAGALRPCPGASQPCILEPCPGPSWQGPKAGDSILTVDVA
Description: Since the discovery of the three GALRs, major effort has been directed at developing receptor-selective agonists and antagonists. These were based on substitution of certain amino acids in the galanin peptide sequence. While receptor selectivity was achieved to some degree, GAL(2–11) turned out to be a very selective non-GAL1R agonist.

[5] = intranasal administration with α-cyclodextrins; cited from earlier work
Description: For delivery of therapeutic peptides and proteins to the brain, the blood–brain barrier (BBB) is a major impediment. Intranasal delivery might provide a non-invasive means to bypass the BBB. Advantages of applying peptides via the nasal route, provided they do indeed reach the brain, include minimizing exposure to peripheral organs and tissues, thus reducing systemic side effects. […] Intranasal delivery of peptides may provide the ability to target specific re ...

[6] = system: non-fasted male Wistar rats; assay: Food intake and body weight after intranasal application of peptides; format: in vivo, rat
Procedure: For intranasal delivery, 1 mg of M89b was first dissolved in 566 µl 2,2,2-trifluorethanol, 566 µl 10% (2-hydroxypropyl)-ß-cyclodextrin (HBC), and 1 µl acetic acid and incubated at 60 °C for 20 min. Another 566 µl of 10% HBC were added. The peptide was then dried in a speed-vac, and the dried pellet was dissolved in 1132 µl water by vortexing and incubation at 60 °C. M871 and GALP were purchased from GL Biochem. M871 was dissolved in saline containing 10% HBC. GALP was dissolved in saline containing 5% α-cyclodextrin.
In vivo experiments involving intranasal treatment of rats and measurement of feeding behavior were performed at the Institute for Translational Medicine, University of Pécs, Pécs, Hungary. Experiments were approved by the National Ethical Council for Animal Research (permit number, BA 02/2000–11/2018). They were also in accord with the directives of the European Communities Council on the protection of animals used for scientific purposes (86/609/EEC, Directive 2010/63/EU of the European Parliament and of the Council).
Spontaneous food intake was measured in non-fasted male Wistar rats (3 months old) for 24 h following intranasal application of peptide solutions by an automated FeedScale System (Columbus, OH). Each group of animals (6–9 rats/group) was habituated to the individual chambers of the FeedScale System until daily food intake and changes in the body weight of the animals had normalized. This habituation, which lasted for a minimum of 2 weeks, allowed adaptation to the environment, to the powdered chow and to the feeder. This powdered form of chow prevented food hoarding. A special digital scale under the cages provided precise automated measurement and continuous recording of the amount of consumed food. During the measurement of the cumulative 24 h food intake, data were collected every 30 min.
Intranasal applications were performed at 06:00 PM at the onset of the active nighttime period of rats. First, the body weight of animals was recorded, and then they were intraperitoneally anesthetized with ketamine (52 mg/kg) and xylazine (9 mg/kg). For the intranasal application of peptides, rats were placed on their backs, and 25–30 µl of peptide solution was injected gently per nostril (total volume of 50–60 μl per rat depending on the administered peptides) using a 10-μl pipette. The following solutions were applied: M89b (25 nmol in 60 µl saline containing 10% HBC); GALP (17.5 nmol in 50 µl saline containing 5% α-cyclodextrin); M871 (219 nmol in 60 µl 10% HBC); and M89b + M871 (25 nmol M89b + 219 nmol M871 in 60 µl 10% HBC). […] At 24 h post-treatment, the body weight of the animals was measured.
Statistical analysis was performed with SPSS 11.0. […] Body weight data were analyzed by applying a one-way ANOVA with Tukey’s post hoc test. […]

CC(C)C[C@H](NC(=O)[C@H](CC(C)C)NC(=O)[C@H](Cc1ccc(O)cc1)NC(=O)CNC(=O)[C@H](C)NC(=O)[C@H](CO)NC(=O)[C@H](CC(N)=O)NC(=O)[C@H](CC(C)C)NC(=O)[C@@H](NC(=O)[C@H](Cc1c[nH]c2ccccc12)NC(=O)CN)[C@@H](C)O)C(=O)NCC(=O)N1CCC[C@H]1C(=O)N[C@@H](Cc1c[nH]cn1)C(=O)N[C@@H](C)C(N)=O [GAL-(1–15), reference compound]
metabolised at 0.5 h, 10 µM ([1]; after 30 min, read-out: Peptide degraded in rat serum): 80%
remaining at 1.5 h, 10 µM ([1]; after 90 min, read-out: Peptide detectable in rat serum): < 2%
remaining at 4 h, 143 µM [2]: < 4%
Degradation in brain plasma [3]: the whole amount of GAL-(1–15) was degraded

CC(C)C[C@H](NC(=O)CNC(=O)[C@H](CC(N)=O)NC(=O)[C@H](CCCCN)NC(=O)[C@H](CC(=O)O)NC(=O)[C@H](CO)NC(=O)[C@H](Cc1ccccc1)NC(=O)[C@H](CO)NC(=O)[C@H](CCCNC(=N)N)NC(=O)[C@H](Cc1cnc[nH]1)NC(=O)[C@H](CC(N)=O)NC(=O)CNC(=O)[C@@H](NC(=O)[C@H](C)NC(=O)[C@H](Cc1cnc[nH]1)NC(=O)[C@@H]1CCCN1C(=O)CNC(=O)[C@H](CC(C)C)NC(=O)[C@H](CC(C)C)NC(=O)[C@H](Cc1ccc(O)cc1)NC(=O)CNC(=O)[C@H](C)NC(=O)[C@H](CO)NC(=O)[C@H](CC(N)=O)NC(=O)[C@H](CC(C)C)NC(=O)[C@@H](NC(=O)[C@H](Cc1c[nH]c2ccccc12)NC(=O)CN)[C@@H](C)O)C(C)C)C(=O)N[C@H](C(=O)N[C@@H](CO)C(=O)O)[C@@H](C)O [galanin]
In vivo half-life in plasma [4]: around 4 min

Ala5-galanin(2–11)
Preference for GAL2R compared to both GAL1R and GAL3R (GAL2R): more than 375 fold

galanin-like peptide (APAHRGRGGWTLNSAGYLLGPVLHLPQMGDQDGKRETALEILDLWKAIDGLPYSHPPQPS; Galanin-like peptide; UniProt Q9UBC7 25-84, looked up) [GALP, endogenous ligand of GALRs, positive control, from GL Biochem, reference compound]
Increase of uptake in all brain regions compared to GALP alone [5]: two- to threefold
Reduction of 24-h food intake ([6]; intranasal 17.5 nmol in 50 µl saline with 5% α-cyclodextrin, vs vehicle, p = 0.038): 19%
24-h body weight change ([6]; intranasal 17.5 nmol in saline with 5% α-cyclodextrin, p = 0.0247 as printed): trend of reduction, but this change did not reach statistical significance
